In series [1] the test system is OCI-LY-19. Put plainly: Cell proliferation assay (CellTiter Glo, 72 h). It is filed as cell-based. The settings on record: Homo sapiens, OCI-LY19, OCI-LY-19, DLBCL GCB subtype. On the procedure: (§1) The proliferation of all (DLCBL) cell lines in the presence of different concentrations of Compound A′ or FR compound for 72 h was assessed using CellTiter Glo kits (Promega Corporation, Madison, Wis.). All expressed values were averages of triplicate experiments, and IC50 was calculated using GraphPad Prism 5 (GraphPad Software, San Diego, Calif.) according to the manufacturer's instructions or the MTS software.

For series [2], the system named is HT. Put plainly: Cell proliferation assay (CellTiter Glo, 72 h). The format is cell-based. The note with it: Homo sapiens, DLBCL GCB subtype. On the procedure:
as §1
On the technique in general: ATP-based viability assays read luminescence as a measure of living cells.

In series [3] the test system is HBL1. Put plainly: Cell proliferation assay (CellTiter Glo, 72 h). The format is cell-based. The settings on record: HBL1, DLBCL ABC subtype. On the procedure: as §1
Series [4] relates to SU-DHL-6. The experiment in a line: Cell proliferation assay (CellTiter Glo, 72 h). It is filed as cell-based. The settings on record: Homo sapiens, SU-DHL-6, DLBCL GCB subtype. The protocol:
as §1

For series [5], the system named is SU-DHL-10. Put plainly: Cell proliferation assay (CellTiter Glo, 72 h). The format is cell-based. The note with it: Homo sapiens, SU-DHL10, SU-DHL-10, DLBCL GCB subtype. On the procedure: as §1
The test system of series [6] is DB. The experiment in a line: Cell proliferation assay (CellTiter Glo, 72 h). The settings on record: Homo sapiens, DLBCL GCB subtype. The format is cell-based. On the procedure: as §1
Series [7] concerns SU-DHL-4. The experiment in a line: Cell proliferation assay (CellTiter Glo, 72 h). The format is cell-based. The settings on record: Homo sapiens, SU-DHL-4, DLBCL GCB subtype. On the procedure:
as §1

The test system of series [8] is SU-DHL-8. Put plainly: Cell proliferation assay (CellTiter Glo, 72 h). It is filed as cell-based. The note with it: Homo sapiens, SU-DHL-8, DLBCL GCB subtype. On the procedure: as §1
For series [9], the system named is OCI-LY-3. The experiment in a line: Cell proliferation assay (CellTiter Glo, 72 h). The format is cell-based. The note with it: Homo sapiens, OCI-Ly3, OCI-LY-3, DLBCL ABC subtype. The protocol:
as §1

Series [10] concerns subcutaneous DLBCL SU-DHL-10 xenografts. The experiment in a line: In vivo efficacy in DLBCL SU-DHL-10 xenograft model. Also on record: species or system female SCID mice. The note with it: 15 mg/kg q7d iv, 16 days, end of experiment. On the procedure:
(§2) The aim of the present experiments was to assess the in vivo efficacy and tolerability of Compound A′ in monotherapy in the DLBCL SU-DHL-10 tumour model subcutaneously implanted in SCID mice. In vivo efficacy was determined in female SCID mice bearing subcutaneous DLBCL SU-DHL-10 xenografts. Compound A′ was assessed at one dose level in monotherapy. Anti-tumour activity and tolerability of the treated group was assessed using the vehicle control group as a reference. […] At randomisation, the area of growing tumours was initially determined Animals bearing one tumour of an area of 25-35 mm2 were distributed in experimental groups according to the study protocol. The day of randomisation is designated as day 0 of an experiment Animals either received Compound A′ (formulated in 30% PEG400/10% Ethanol/60%water), at a dose of 15 mg/kg q7d intravenously or vehicle control (q7d iv) for a period of 16 days.
(§3) The maximum body weight loss was −9% in Compound A′ group compared to −4% in the vehicle group indicating moderate tolerability of Compound A′ at a dose of 15 mg/kg q7d iv. At the end of the experiment the Treatment to Control ratios (T/C) was calculated based on the mean tumor area in the Compound A′ treatment group and in the vehicle control group.

Series [11] has as its system subcutaneous DLBCL OCI-LY-3 xenografts. Put plainly: In vivo efficacy in DLBCL OCI-LY-3 xenograft model. Also on record: species or system female SCID mice. The settings on record: 10 mg/kg q7d iv, 14 days, end of experiment. On the procedure:
(§4) The aim of the present experiments was to assess the in vivo efficacy and tolerability of Compound A′ in monotherapy in the DLBCL OCI-LY-3 tumour model subcutaneously implanted in SCID mice. In vivo efficacy was determined in female SCID mice bearing subcutaneous DLBCL OCI-LY-3 xenografts. Compound A′ was assessed at one dose level in monotherapy. Anti-tumour activity and tolerability of the treated group was assessed using the vehicle control group as a reference.
(§5) At randomisation, the area of growing tumours was initially determined Animals bearing one tumour of an area of 25-35 mm2 were distributed in experimental groups according to the study protocol. The day of randomisation is designated as day 0 of an experiment Animals either received Compound A′ (formulated in 30% PEG400/10% Ethanol/60%water), at a dose of 10 mg/kg q7d intravenously or vehicle control (qd po) for a period of 14 days.
At the end of the experiment Treatment to Control ratios (T/C) were calculated based on the mean tumor area and the mean tumor weight in the Compound A′ treatment group and in the vehicle control group.

Series [12] is described as follows: Tolerability in OCI-LY-3 xenograft study. It is filed as in vivo. The note with it: 10 mg/kg q7d iv, 14 days. The protocol:
as §4, §5

Series [13] in a line: Tolerability in SU-DHL-10 xenograft study. The format is in vivo, female SCID mice. The note with it: 15 mg/kg q7d iv, 16 days. On the procedure: as §2, §3
For series [14], the system named is TMD8. Put plainly: Cell proliferation assay (CellTiter Glo, 72 h). It is filed as cell-based. The settings on record: Homo sapiens, TMD8, DLBCL ABC subtype. The protocol: as §1
In series [15] the test system is SU-DHL-5. Put plainly: Cell proliferation assay (CellTiter Glo, 72 h). The format is cell-based. The settings on record: Homo sapiens, SU-DHL-5, DLBCL GCB subtype. The protocol:
as §1

Broadly, the IC50 is the concentration that gives 50% inhibition. On to `COc1cc(F)ccc1-c1ncnc(Nc2cccc(CS(C)(=N)=O)c2)n1` (centres unmarked) [FR compound, reference compound], for which the IC50 was 480 nM in [1]; 710 nM in [2]; 540 nM in [3]; 360 nM in series [4]; 600 nM in series [5]; 570 nM in series [6]. The IC50 in series [7] is 170 nM; in series [8], 610 nM; in series [9] it was 340 nM.

Turning to `COc1cc(F)ccc1-c1cc(Nc2cc(CS(C)(=N)=O)ccn2)ncc1F` (single isomer, unassigned; (+)) [Compound A′, (+)-5-Fluoro-4-(4-fluoro-2-methoxyphenyl)-N-{4-[(S-methylsulfonimidoyl)methyl]pyridin-2-yl}pyridin-2-amine], the “T/C by area (Treatment to Control ratio, mean tumor area)” value in series [10] worked out at 0.02; in series [11], 0.29. In addition, the “T/C by weight (Treatment to Control ratio, mean tumor weight)” value in series [11] is listed as 0.24. Besides, the Fatal toxicities entry in series [12] is recorded as “did not occur”. In addition, the figures for the “maximum body weight loss” value in series [12] and in series [13] were −6% and −9%, respectively. For the same molecule, the IC50 turned out to be 39 nM in [1]; 81 nM in series [2]; 196 nM in series [3]; 37 nM in series [4]; 129 nM in [5]; 100 nM in [14]. Further, the IC50 in series [6] came to 88 nM; in series [7], 90 nM; in [8] it was 93 nM; in series [9], 83 nM; in series [15], 105 nM.

For the origin of these results see patent publication US11701347B2, “Use of 5-fluoro-4-(4-fluoro-2-methoxyphenyl)-N-{4-[(S-methylsulfonimidoyl)methyl]pyridin-2-yl}pyridin-2-amine for treating diffuse large B-cell lymphoma” (Bayer Aktiengesellschaft, priority 2018, dated 2023).
